Data set [1] relates to HSF1. Description: Western blot of HSF1 in cytoplasmic and nuclear extracts of Jurkat cells. The class given is cell-based, human. As to the method: (§1) Jurkat T cells (2 μg/ml=1 μM), U-937 (4 μg/ml), MJ (5 μg/ml), and HH cells (2.5 μg/ml) were treated for 0-24 hours with the indicated concentrations of avicin D. PBLs from the patients or normal blood were treated with 5 μg/ml of avicin D for 24 hours.
(§2) At the end of treatments, cells were harvested, washed with sterile ice-cold PBS and cytoplasmic extracts (CE) were prepared by lysing the cells in CE buffer containing 10 mM Hepes-Cl pH 7.5, 10 mM KCl, 0.1 mM EDTA, 0.1 mM EGTA, 0.3% NP40, and a protease inhibitor cocktail (Sigma). After centrifugation and separating the supernatant (CE proteins), the pellet was resuspended in a buffer containing 20 mM Hepes-Cl, 400 mM NaCl, 1 mM EDTA, 1 mM EGTA, and protease inhibitor cocktail (Sigma). The nuclear protein extraction proceeded for 30 min. on ice followed by centrifugation at 14,000 rpm for 5 min at 4° C. The clear supernatant containing nuclear proteins (NE) was collected, glycerol (10%) was added, and proteins stored at −80° C. until use.
(§3) SDS-PAGE and immunoblot procedures were essentially performed as described (Sambrook, 1989). […] Protein bands were detected using the ECL chemiluminescence kit from Amersham as per the manufacturer's protocol.
(§4) Quantitation of proteins (western) and transcripts (RT-PCR) was performed using the NIH 1.61 image software.
(A western blot detects proteins with antibodies after separation by electrophoresis.)

The test system of data set [2] is Hsp90α, Hsc70, and Hsp60 transcripts. Description: One-step RT-PCR of Hsp90α, Hsc70 and Hsp60 transcripts in Jurkat cells. Type of data set: cell-based, human. As to the method:
Total RNA purified using Trizol method (Invitrogen) was subjected to DNAseI (RNAase free, Sigma Chemical Co.) treatment to remove any residual DNA, followed by heat inactivation and addition of 1 mM EDTA. Absence of genomic DNA was confirmed by performing PCR using Taq DNA polymerase. About 50-100 ng of purified total RNA was used in a one-step RT-PCR reaction kit from Invitrogen in a Techne Genius machine. The samples were separated on 0.8% agarose-TBE gels and viewed by staining with ethidium bromide.
as §4

For data set [3], the system named is recombinant Hsp70. Description: In vitro ubiquitination assay with recombinant Hsp70, his-ub and CE proteins of treated cells. Type of data set: biochemical, bovine. The conditions noted are these: cytoplasmic extracts of treated vs untreated Jurkat cells. As to the method: Ubiquitination assays were performed as described (Firestein and Feuerstein, 1998) with few modifications using recombinant bovine Hsp70 and N-terminal histidine-tagged ubiquitin (his-ub). About 0.5 μg of Hsp70 and 4 μg of his-ub were incubated in a buffer containing 50 mM Tris-Cl pH 7.5, 2.5 mM MgCl2, 0.05% NP 40, 0.5 mM DTT, 5 mM ATP, 4 μM MG132, and ATP regenerating system containing 10 mM creatine phosphate, 0.1 μg/ml of creatine kinase, and about 50 μg of CE proteins. The reaction was carried out for 1 hour at 30° C. and the products were subjected to nickel agarose chromatographic purification to purify histidine-tagged proteins as per manufacturer's protocol (Qiagen). The affinity-purified proteins were prepared for SDS-PAGE and western analysis using anti-Hsp70 antibodies.

The subject of data set [4] is E3α ubiquitin ligase. Description: Western blot of E3α ubiquitin ligase in Jurkat cells. Conditions: peak at one hour of treatment. The class given is cell-based, human. As to the method:
as §1, §2, §3

Data set [5] has as its system CHIP. Description: Western blot of CHIP in Jurkat cells. The class given is cell-based, human. Conditions: same conditions as E3α. As to the method:
as §1, §2, §3

Data set [6] has as its system XIAP. Description: Western blot of XIAP protein in Jurkat cells. Type of data set: cell-based, human. As to the method:
as §1, §2
SDS-PAGE and immunoblot procedures were essentially performed as described (Sambrook, 1989). Briefly, cytoplasmic and nuclear proteins were resolved on SDS-PAGE, blotted on PVDF membranes (BioRad) and probed with various antibodies followed with anti-rabbit, anti-mouse antibody conjugated to horseradish peroxidase (HRP) from BioRad or HRP conjugated anti-goat antibody from Santa Cruz Biotechnology, corresponding to the primary antibody. Protein bands were detected using the ECL chemiluminescence kit from Amersham as per the manufacturer's protocol.
as §4

In data set [7] the target is T1, 20S proteasomal activity (Homo sapiens, UniProt Q99436).
T1 construct: Proteasomal extracts (PE) were prepared; endogenous in cells; host or cells: Jurkat T cells (proteasomal extracts)
T1 sequence (Q99436 44-277): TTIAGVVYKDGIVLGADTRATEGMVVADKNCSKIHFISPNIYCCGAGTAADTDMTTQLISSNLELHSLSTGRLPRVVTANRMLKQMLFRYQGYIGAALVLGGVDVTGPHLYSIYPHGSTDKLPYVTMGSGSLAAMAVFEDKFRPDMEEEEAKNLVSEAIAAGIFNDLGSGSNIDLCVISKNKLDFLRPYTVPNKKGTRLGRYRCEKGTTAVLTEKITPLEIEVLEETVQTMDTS
Description: 20S proteasomal assay in Jurkat cells. Type of data set: cell-based. The conditions noted are these: for decrease in the 20S proteasomal activity: avicin D 1 μM. As to the method:
Jurkat T cells were treated with 1 μM of avicin D for 0-4 hours. Proteasomal extracts (PE) were prepared as described previously (18) in a buffer containing 50 mM Hepes pH 8, 5 mM EGTA, 0.3% NP40, and 10% glycerol. The assay reaction contained 20 mM Tris-Cl pH7.2, 0.1 mM EDTA, 1 mM β-mercaptoethanol, 5 mM ATP, 20% glycerol, 0.02% SDS, and 0.04% NP40. About 10 μg of the PE proteins and BocLRR-AMC (0.1 mM), which allows measurement of the trypsin-like activity of proteasomes, was used as substrate. The reaction was carried out at 30° C. for 30 minutes and the fluorescence was read at 380 nm (excitation) and 460 nm (emission) in a Perkin Elmer HTS 7000 Plus, Bioassay Reader.
Statistical significance of differences observed in the proteasomal activity in avicin treated cells compared with the untreated cells was determined by using an unpaired Student t test. The minimum level of significance was a P<0.05.

Data set [8] has as its system caspase 3. Nature of the data set: Western blot of caspase 3 activation in Jurkat cells. Type of data set: cell-based, human. The conditions noted are these: 2-4 hours. As to the method:
as §1, §2, §3

Data set [9] deals with XIAP. Nature of the data set: Western blot of XIAP in leukemic/lymphoma cell-lines. Type of data set: cell-based, human. Conditions: Jurkat, U937, MJ-1, and HH cells, 24 hours post-treatment. As to the method:
Human Jurkat T cell leukemia, monocytic U937 cells, and cutaneous T-cell lymphoma (CTCL) cell lines MJ (G11) and HH were obtained from American Type Culture Collection (Rockville, Md.) and grown in RPMI 1640 medium supplemented with 10% FBS and 2 mM glutamine.
as §1
At the end of treatments, cells were harvested, washed with sterile ice-cold PBS and cytoplasmic extracts (CE) were prepared by lysing the cells in CE buffer containing 10 mM Hepes-Cl pH 7.5, 10 mM KCl, 0.1 mM EDTA, 0.1 mM EGTA, 0.3% NP40, and a protease inhibitor cocktail (Sigma). After centrifugation and separating the supernatant (CE proteins), the pellet was resuspended in a buffer containing 20 mM Hepes-Cl, 400 mM NaCl, 1 mM EDTA, 1 mM EGTA, and protease inhibitor cocktail (Sigma). […]
as §3, §4

Data set [10] concerns Hsp70. Description: Western blot of Hsp70 in primary PBL from Sezary syndrome patients. Conditions: 5 μg/ml, 24 hours. The class given is cell-based, human. As to the method:
as §1, §2, §3, §4

The test system of data set [11] is XIAP. Description: Western blot of XIAP in primary PBL from Sezary syndrome patients. The conditions noted are these: 5 μg/ml, 24 hours. The class given is cell-based, human. As to the method:
as §1, §2, §3, §4

Data set [12] has as its system CTCL cells. Description: Apoptosis in PBL from Sezary syndrome patients. The class given is cell-based, human. As to the method: as §1
The test system of data set [13] is PBL from a normal blood sample. Description: Apoptosis in normal PBL. The class given is cell-based, human. As to the method: as §1
For data set [14], the system named is ubiquitin-protein conjugates. Description: Western blot of ubiquitin-protein conjugates in Jurkat cells. Type of data set: cell-based, human. The conditions noted are these: from around 2 hours. As to the method:
as §1, §2, §3

In the case of `C=C[C@](C)(O)CC/C=C(\CO)C(=O)O[C@H]1[C@H](O)[C@@H](O)[C@H](O[C@@](C)(C=C)CC/C=C(\CO)C(=O)O[C@H]2C[C@]3(C(=O)O[C@@H]4O[C@H](CO)[C@@H](O)[C@H](O)[C@H]4O[C@@H]4O[C@@H](C)[C@H](O[C@@H]5O[C@@H](CO)[C@H](O)[C@H]5O)[C@@H](O[C@@H]5O[C@H](CO)[C@@H](O)[C@H](O)[C@H]5O)[C@H]4O)[C@H](O)C[C@]4(C)C(=CC[C@@H]5[C@@]6(C)CC[C@H](O[C@@H]7O[C@H](CO[C@@H]8O[C@H](C)[C@H](O)[C@H](O)[C@H]8O[C@@H]8OC[C@@H](O)[C@H](O)[C@H]8O)[C@@H](O)[C@H](O)[C@H]7NC(C)=O)C(C)(C)[C@@H]6CC[C@]54C)[C@@H]3CC2(C)C)O[C@@H]1C` [avicin D], the “increase in the levels of nuclear HSF1” value in data set [1] (4 hours, nuclear extract, densitometric scanning) is roughly 1.5 fold. The “cytoplasmic content of HSF1 protein” value in [1] (cytoplasmic extract) is “No apparent change”. For the same compound, in data set [2], the “changes in the transcripts encoding Hsp90α, Hsc70, and Hsp60 (RT-PCR)” value is reported as “marginal”. For the same compound, the “in vitro ubiquitination of Hsp70 (his-ub-Hsp70 ladder)” value in [3] is “stronger ladder of his-ub-Hsp70”. Further, the E3α protein level result in data set [4] is given as “dramatic increase”. Further, in [5], the “levels of CHIP” value was “No significant change”. The compound further yielded an XIAP degraded in data set [6] (by 1 hour) of roughly 60%. Moreover, the XIAP protein level result in data set [6] (starting at 1 hour post treatment) and in [9] was “significant decrease” throughout. Also, the “decrease in the 20S proteasomal activity” value in data set [7] (2 hours) was found to be 33%; in data set [7] (4 hours) it was 41%. The “decrease in proteasome activity” value in data set [7] (during 2-4 hours of treatment) is listed as 30-40%. The “caspase 3 activation” value in data set [8] was “caspase 3 activation”. The “decrease in Hsp70 protein” value in data set [10] was 25-35%. Also, in [11], the “decrease in XIAP protein” value is listed as 30-40%. For the same compound, the apoptosis result is “caused apoptosis” in [12] and “resistant to apoptosis” in data set [13]. Further, the “ubiquitin-protein conjugates in cell extracts” value in [14] was “protein conjugates observed”.

For the origin of these results see patent US20090018146A1, “Combination Therapy with Triterpenoid Compounds and Proteasome Inhibitors” (Research Development Corporation, priority 2005, published 2009).
